Assay results: publication PMC9067983, “Identification of highly selective type II kinase inhibitors with chiral peptidomimetic tails” (Journal of Enzyme Inhibition and Medicinal Chemistry, 2022)
Where a SMILES comes first, the peptide text is derived from it. [ ]: non-standard residue; d: D form. The star is where a group is joined. X1 = Cc1ccc(Nc2ncc3c(n2)N(C)C(=O)N(c2cc(C(=O)*)ccc2C)C3)cn1; Aib = CC(C)(N)C(=O)O

Tests used:
Assay in all cases: kinase selectivity profiling
Type in all cases: biochemical
Details in all cases: 10µM ATP, read-out: % inhibition (relative to DMSO)
AKT2 = target: T1, AKT2 (Homo sapiens, UniProt P31751)
T1 construct: purchased Reaction Biology Corp
Protocol: (§1) Full panel kinase profiling and kinase IC50 measurement were performed by using Reaction Biology Corp. (San Diego, USA).

ARK5/NUAK1 = target: T2, ARK5/NUAK1 (Homo sapiens, UniProt O60285)
T2 construct: purchased Reaction Biology Corp
Protocol: as §1

CAMK2g = target: T3, CAMK2g (Homo sapiens, UniProt Q13555)
T3 construct: purchased Reaction Biology Corp
Protocol: as §1

CAMK4 = target: T4, CAMK4 (Homo sapiens, UniProt Q16566)
T4 construct: purchased Reaction Biology Corp
Protocol: as §1

CDK1/cyclin A = target: T5, CDK1/cyclin A (Homo sapiens, UniProt P06493)
T5 construct: purchased Reaction Biology Corp
Protocol: as §1

CDK2/Cyclin A1 = target: T6, CDK2/Cyclin A1 (Homo sapiens, UniProt P24941)
T6 construct: purchased Reaction Biology Corp
Protocol: as §1

CDK3/cyclin E = target: T7, CDK3/cyclin E (Homo sapiens, UniProt Q00526)
T7 construct: purchased Reaction Biology Corp
Protocol: as §1

CDK3/cyclin E2 = target: T8, CDK3/cyclin E2 (Homo sapiens, UniProt Q00526)
T8 construct: purchased Reaction Biology Corp
Protocol: as §1

CK1g2 = target: T9, CK1g2 (Homo sapiens, UniProt P78368)
T9 construct: purchased Reaction Biology Corp
Protocol: as §1

DCAMKL1 = target: T10, DCAMKL1 (Homo sapiens, UniProt O15075)
T10 construct: purchased Reaction Biology Corp
Protocol: as §1

EPHA2 = target: T11, EPHA2 (Homo sapiens, UniProt P29317)
T11 construct: purchased Reaction Biology Corp
Protocol: as §1

ERK2/MAPK1 = target: T12, ERK2/MAPK1 (Homo sapiens, UniProt P28482)
T12 construct: purchased Reaction Biology Corp
Protocol: as §1

ERN1/IRE1 = target: T13, ERN1/IRE1 (Homo sapiens, UniProt O75460)
T13 construct: purchased Reaction Biology Corp
Protocol: as §1

GRK1 = target: T14, GRK1 (Homo sapiens, UniProt Q15835)
T14 construct: purchased Reaction Biology Corp
Protocol: as §1

GRK2 = target: T15, GRK2 (Homo sapiens, UniProt P25098)
T15 construct: purchased Reaction Biology Corp
Protocol: as §1

HGK/MAP4K4 = target: T16, HGK/MAP4K4 (Homo sapiens, UniProt O95819)
T16 construct: purchased Reaction Biology Corp
Protocol: as §1

IKKe/IKBKE = target: T17, IKKe/IKBKE (Homo sapiens, UniProt Q14164)
T17 construct: purchased Reaction Biology Corp
Protocol: as §1

JAK1 = target: T18, JAK1 (Homo sapiens, UniProt P23458)
T18 construct: purchased Reaction Biology Corp
Protocol: as §1

LATS1 = target: T19, LATS1 (Homo sapiens, UniProt O95835)
T19 construct: purchased Reaction Biology Corp
Protocol: as §1

LCK2/ICK = target: T20, LCK2/ICK (Homo sapiens, UniProt Q9UPZ9)
T20 construct: purchased Reaction Biology Corp
Protocol: as §1

LOK/STK10 = target: T21, LOK/STK10 (Homo sapiens, UniProt O94804)
T21 construct: purchased Reaction Biology Corp
Protocol: as §1

LRRK2 = target: T22, LRRK2 (Homo sapiens, UniProt Q5S007)
T22 construct: purchased Reaction Biology Corp
Protocol: as §1

MARK3 = target: T23, MARK3 (Homo sapiens, UniProt P27448)
T23 construct: purchased Reaction Biology Corp
Protocol: as §1

MEK3 = target: T24, MEK3 (Homo sapiens, UniProt P46734)
T24 construct: purchased Reaction Biology Corp
Protocol: as §1

MKK6 = target: T25, MKK6 (Homo sapiens, UniProt P52564)
T25 construct: purchased Reaction Biology Corp
Protocol: as §1

MLK3/MAP3K11 = target: T26, MLK3/MAP3K11 (Homo sapiens, UniProt Q16584)
T26 construct: purchased Reaction Biology Corp
Protocol: as §1

MSK2/RPS6KA4 = target: T27, MSK2/RPS6KA4 (Homo sapiens, UniProt O75676)
T27 construct: purchased Reaction Biology Corp
Protocol: as §1

MUSK = target: T28, MUSK (Homo sapiens, UniProt O15146)
T28 construct: purchased Reaction Biology Corp
Protocol: as §1

NEK1 = target: T29, NEK1 (Homo sapiens, UniProt Q96PY6)
T29 construct: purchased Reaction Biology Corp
Protocol: as §1

NEK9 = target: T30, NEK9 (Homo sapiens, UniProt Q8TD19)
T30 construct: purchased Reaction Biology Corp
Protocol: as §1

OSR1/OXSR1 = target: T31, OSR1/OXSR1 (Homo sapiens, UniProt O95747)
T31 construct: purchased Reaction Biology Corp
Protocol: as §1

PBK/TOPK = target: T32, PBK/TOPK (Homo sapiens, UniProt Q96KB5)
T32 construct: purchased Reaction Biology Corp
Protocol: as §1

PDK1/PDPK1 = target: T33, PDK1/PDPK1 (Homo sapiens, UniProt O15530)
T33 construct: purchased Reaction Biology Corp
Protocol: as §1

PKA = target: T34, PKA (Homo sapiens, UniProt P17612)
T34 construct: purchased Reaction Biology Corp
Protocol: as §1

PKCb1 = target: T35, PKCb1 (Homo sapiens, UniProt P05771)
T35 construct: purchased Reaction Biology Corp
Protocol: as §1

PKG1a = target: T36, PKG1a (Homo sapiens, UniProt Q13976)
T36 construct: purchased Reaction Biology Corp
Protocol: as §1

PKG2/PRKG2 = target: T37, PKG2/PRKG2 (Homo sapiens, UniProt Q13237)
T37 construct: purchased Reaction Biology Corp
Protocol: as §1

PLK3 = target: T38, PLK3 (Homo sapiens, UniProt Q9H4B4)
T38 construct: purchased Reaction Biology Corp
Protocol: as §1

SGK2 = target: T39, SGK2 (Homo sapiens, UniProt Q9HBY8)
T39 construct: purchased Reaction Biology Corp
Protocol: as §1

SYK = target: T40, SYK (Homo sapiens, UniProt P43405)
T40 construct: purchased Reaction Biology Corp
Protocol: as §1

TSSK2 = target: T41, TSSK2 (Homo sapiens, UniProt Q96PF2)
T41 construct: purchased Reaction Biology Corp
Protocol: as §1

TTBK2 = target: T42, TTBK2 (Homo sapiens, UniProt Q6IQ55)
T42 construct: purchased Reaction Biology Corp
Protocol: as §1

T3 sequence (Q13555 whole entry): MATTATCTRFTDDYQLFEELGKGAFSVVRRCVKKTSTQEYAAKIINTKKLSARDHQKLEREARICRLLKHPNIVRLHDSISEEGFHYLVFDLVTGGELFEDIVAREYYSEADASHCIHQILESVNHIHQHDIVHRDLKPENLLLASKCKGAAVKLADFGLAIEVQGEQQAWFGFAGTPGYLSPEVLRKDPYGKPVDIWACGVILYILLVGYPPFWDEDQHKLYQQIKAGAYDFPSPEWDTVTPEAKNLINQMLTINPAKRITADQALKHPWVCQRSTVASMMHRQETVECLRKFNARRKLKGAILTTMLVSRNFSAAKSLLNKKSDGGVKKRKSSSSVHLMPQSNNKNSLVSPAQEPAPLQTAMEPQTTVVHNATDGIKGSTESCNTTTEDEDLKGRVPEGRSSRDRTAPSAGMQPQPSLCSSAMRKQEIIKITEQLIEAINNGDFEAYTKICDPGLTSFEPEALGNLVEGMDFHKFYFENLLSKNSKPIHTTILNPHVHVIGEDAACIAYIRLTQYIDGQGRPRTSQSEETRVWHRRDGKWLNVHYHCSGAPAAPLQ
T17 sequence (Q14164 whole entry): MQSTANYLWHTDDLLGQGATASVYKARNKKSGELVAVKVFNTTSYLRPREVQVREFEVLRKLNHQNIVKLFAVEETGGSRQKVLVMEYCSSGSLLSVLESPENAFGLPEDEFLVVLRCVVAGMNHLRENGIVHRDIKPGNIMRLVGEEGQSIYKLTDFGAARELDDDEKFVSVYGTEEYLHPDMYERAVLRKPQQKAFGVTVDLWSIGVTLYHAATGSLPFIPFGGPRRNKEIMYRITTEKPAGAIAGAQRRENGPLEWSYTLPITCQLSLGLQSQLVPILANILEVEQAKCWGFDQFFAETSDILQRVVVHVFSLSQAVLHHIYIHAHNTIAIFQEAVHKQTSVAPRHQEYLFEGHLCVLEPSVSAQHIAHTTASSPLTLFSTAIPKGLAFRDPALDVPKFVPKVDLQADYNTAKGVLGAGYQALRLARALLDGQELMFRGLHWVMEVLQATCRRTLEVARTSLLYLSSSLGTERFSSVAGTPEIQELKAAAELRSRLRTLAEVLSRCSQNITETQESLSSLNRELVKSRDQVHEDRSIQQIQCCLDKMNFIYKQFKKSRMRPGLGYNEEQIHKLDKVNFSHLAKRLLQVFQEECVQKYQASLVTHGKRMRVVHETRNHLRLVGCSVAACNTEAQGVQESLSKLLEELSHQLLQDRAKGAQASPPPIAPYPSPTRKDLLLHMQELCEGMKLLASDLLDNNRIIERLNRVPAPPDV
T38 sequence (Q9H4B4 whole entry): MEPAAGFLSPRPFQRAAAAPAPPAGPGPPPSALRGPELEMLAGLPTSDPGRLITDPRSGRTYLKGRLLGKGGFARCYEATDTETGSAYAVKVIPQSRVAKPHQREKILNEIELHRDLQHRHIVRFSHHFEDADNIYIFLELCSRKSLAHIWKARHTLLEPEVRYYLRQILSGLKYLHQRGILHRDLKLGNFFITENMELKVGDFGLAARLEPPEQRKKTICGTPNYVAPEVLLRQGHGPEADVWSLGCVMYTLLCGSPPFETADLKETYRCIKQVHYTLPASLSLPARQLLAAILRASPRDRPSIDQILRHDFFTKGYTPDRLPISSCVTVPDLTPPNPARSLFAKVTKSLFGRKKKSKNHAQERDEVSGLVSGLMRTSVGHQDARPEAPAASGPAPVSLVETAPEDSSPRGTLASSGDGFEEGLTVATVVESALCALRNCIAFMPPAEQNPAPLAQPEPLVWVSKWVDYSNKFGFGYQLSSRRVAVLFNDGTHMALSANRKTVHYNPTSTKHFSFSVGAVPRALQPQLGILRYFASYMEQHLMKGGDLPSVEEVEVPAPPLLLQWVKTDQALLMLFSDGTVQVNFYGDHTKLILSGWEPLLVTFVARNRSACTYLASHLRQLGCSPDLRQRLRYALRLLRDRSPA
T26 sequence (Q16584 whole entry): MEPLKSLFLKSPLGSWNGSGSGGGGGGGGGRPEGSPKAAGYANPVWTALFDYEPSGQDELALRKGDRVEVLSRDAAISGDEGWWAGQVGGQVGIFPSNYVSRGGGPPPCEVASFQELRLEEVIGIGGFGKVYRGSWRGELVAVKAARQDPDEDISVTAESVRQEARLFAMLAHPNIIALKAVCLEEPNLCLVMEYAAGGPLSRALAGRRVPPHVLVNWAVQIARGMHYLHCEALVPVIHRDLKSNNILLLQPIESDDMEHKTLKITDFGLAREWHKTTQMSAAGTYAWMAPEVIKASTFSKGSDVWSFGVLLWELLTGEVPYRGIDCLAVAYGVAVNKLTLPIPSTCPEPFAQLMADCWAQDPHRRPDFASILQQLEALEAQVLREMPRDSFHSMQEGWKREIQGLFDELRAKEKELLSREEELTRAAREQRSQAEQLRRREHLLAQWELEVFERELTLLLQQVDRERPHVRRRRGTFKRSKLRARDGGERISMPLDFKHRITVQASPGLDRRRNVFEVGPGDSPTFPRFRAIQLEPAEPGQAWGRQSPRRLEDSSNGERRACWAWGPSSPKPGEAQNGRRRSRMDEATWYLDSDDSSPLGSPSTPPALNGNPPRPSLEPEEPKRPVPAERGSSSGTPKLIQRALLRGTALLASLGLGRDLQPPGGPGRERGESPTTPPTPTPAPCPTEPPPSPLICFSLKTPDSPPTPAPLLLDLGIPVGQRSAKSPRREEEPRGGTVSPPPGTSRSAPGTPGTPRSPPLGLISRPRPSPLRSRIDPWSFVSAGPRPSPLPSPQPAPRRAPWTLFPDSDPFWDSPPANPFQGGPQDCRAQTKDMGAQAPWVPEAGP
T9 sequence (P78368 whole entry): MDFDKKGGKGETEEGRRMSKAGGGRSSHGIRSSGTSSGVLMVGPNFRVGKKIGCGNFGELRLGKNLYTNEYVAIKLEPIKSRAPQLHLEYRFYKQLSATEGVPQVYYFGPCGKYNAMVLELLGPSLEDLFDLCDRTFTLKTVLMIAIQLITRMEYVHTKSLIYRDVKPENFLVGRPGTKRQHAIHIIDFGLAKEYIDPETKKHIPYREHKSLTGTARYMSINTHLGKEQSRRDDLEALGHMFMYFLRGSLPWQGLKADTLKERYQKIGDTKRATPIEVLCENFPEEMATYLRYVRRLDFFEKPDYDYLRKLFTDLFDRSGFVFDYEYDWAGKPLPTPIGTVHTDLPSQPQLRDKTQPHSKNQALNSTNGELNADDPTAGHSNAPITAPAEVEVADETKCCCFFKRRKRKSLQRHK
T23 sequence (P27448 whole entry): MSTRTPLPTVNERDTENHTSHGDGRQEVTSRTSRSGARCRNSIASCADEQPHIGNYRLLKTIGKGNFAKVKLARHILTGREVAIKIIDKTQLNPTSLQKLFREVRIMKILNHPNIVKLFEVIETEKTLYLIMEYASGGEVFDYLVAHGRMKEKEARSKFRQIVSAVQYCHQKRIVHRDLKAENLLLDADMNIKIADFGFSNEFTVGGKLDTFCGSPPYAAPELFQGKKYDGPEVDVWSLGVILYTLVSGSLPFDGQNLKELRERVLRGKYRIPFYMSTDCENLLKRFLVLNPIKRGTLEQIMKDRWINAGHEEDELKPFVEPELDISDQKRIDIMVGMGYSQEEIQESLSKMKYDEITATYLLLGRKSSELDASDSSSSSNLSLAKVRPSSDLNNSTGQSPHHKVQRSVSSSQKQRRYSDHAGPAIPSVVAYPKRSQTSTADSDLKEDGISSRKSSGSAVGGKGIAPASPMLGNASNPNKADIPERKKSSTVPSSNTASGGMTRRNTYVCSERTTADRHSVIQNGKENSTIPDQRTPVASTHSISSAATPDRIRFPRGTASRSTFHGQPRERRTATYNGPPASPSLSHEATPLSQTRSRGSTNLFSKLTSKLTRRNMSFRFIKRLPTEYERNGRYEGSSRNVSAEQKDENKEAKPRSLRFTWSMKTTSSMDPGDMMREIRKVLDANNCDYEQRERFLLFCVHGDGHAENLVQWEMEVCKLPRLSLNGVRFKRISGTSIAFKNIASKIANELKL
T35 sequence (P05771 whole entry): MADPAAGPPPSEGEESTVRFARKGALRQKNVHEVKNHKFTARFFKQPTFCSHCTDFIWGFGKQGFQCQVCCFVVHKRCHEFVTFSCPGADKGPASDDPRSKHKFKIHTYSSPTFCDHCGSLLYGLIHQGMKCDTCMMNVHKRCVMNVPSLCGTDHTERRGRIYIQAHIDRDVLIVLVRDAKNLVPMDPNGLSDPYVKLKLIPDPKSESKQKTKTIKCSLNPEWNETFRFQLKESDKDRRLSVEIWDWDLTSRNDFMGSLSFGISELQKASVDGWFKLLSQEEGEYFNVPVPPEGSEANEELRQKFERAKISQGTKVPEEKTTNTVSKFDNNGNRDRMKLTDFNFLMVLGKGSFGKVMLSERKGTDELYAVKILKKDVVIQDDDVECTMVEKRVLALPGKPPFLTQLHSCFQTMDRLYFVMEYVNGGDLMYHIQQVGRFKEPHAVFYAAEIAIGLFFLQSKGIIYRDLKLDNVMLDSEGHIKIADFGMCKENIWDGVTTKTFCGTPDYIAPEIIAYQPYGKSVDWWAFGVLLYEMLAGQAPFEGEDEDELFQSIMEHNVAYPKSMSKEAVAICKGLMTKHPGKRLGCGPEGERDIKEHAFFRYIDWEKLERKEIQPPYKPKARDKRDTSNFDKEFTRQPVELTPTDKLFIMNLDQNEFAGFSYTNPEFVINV
T32 sequence (Q96KB5 whole entry): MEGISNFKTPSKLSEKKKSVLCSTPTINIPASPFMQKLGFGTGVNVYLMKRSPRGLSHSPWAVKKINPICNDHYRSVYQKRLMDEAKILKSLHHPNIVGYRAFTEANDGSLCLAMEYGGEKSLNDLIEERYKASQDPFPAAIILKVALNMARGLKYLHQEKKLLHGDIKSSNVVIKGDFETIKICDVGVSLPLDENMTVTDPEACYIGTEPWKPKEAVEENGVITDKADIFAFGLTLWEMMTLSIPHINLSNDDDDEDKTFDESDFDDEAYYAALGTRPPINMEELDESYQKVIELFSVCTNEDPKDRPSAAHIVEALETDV

`Cc1ccc(Nc2ncc3c(n2)N(C)C(=O)N(c2cc(C(=O)N[C@H](C(=O)N4CCC[C@H]4C(=O)NC(C)(C)C(=O)N[C@@H](CC(C)C)C(=O)N(C)C)C(C)C)ccc2C)C3)cn1` [7a, (S)-N-(1-(((S)-1-(dimethylamino)-4-methyl-1-oxopentan-2-yl)amino)-2-methyl-1-oxopropan-2-yl)-1-((4-methyl-3-(1-methyl-7-((6-methylpyridin-3-yl)amino)-2-oxo-1,4-dihydropyrimido[4,5-d]pyrimidin-3(2H)-yl)benzoyl)-L-valyl)pyrrolidine-2-carboxamide] (X1-VP[Aib]L-NMe2) was tested, and the inhibition at 1 µM (AKT2) was 0%, the inhibition at 1 µM (ARK5/NUAK1) was 9% and the inhibition at 1 µM (CAMK2g) was 0%. It also gave an inhibition at 1 µM (CAMK4) of 0%, an inhibition at 1 µM (CDK1/cyclin A) of 0% and an inhibition at 1 µM (CDK2/Cyclin A1) of 1%. For the same molecule, the inhibition at 1 µM (CDK3/cyclin E) was 0%, the inhibition at 1 µM (CDK3/cyclin E2) was 0% and the inhibition at 1 µM (CK1g2) was 2%. It also gave an inhibition at 1 µM (DCAMKL1) of 0%, an inhibition at 1 µM (EPHA2) of 21% and an inhibition at 1 µM (ERK2/MAPK1) of 0%. For the same molecule, the inhibition at 1 µM (ERN1/IRE1) was 5%, the inhibition at 1 µM (GRK1) was 0% and the inhibition at 1 µM (GRK2) was 0%. It also gave an inhibition at 1 µM (HGK/MAP4K4) of 0%, an inhibition at 1 µM (IKKe/IKBKE) of 3% and an inhibition at 1 µM (JAK1) of 9%. It also gave an inhibition at 1 µM (LATS1) of 4%, an inhibition at 1 µM (LCK2/ICK) of 0% and an inhibition at 1 µM (LOK/STK10) of 3%. It also gave an inhibition at 1 µM (LRRK2) of 0%, an inhibition at 1 µM (MARK3) of 4% and an inhibition at 1 µM (MEK3) of 0%. It also gave an inhibition at 1 µM (MKK6) of 8%, an inhibition at 1 µM (MLK3/MAP3K11) of 34% and an inhibition at 1 µM (MSK2/RPS6KA4) of 9%. It also gave an inhibition at 1 µM (MUSK) of 7%, an inhibition at 1 µM (NEK1) of 0% and an inhibition at 1 µM (NEK9) of 8%. For the same molecule, the inhibition at 1 µM (OSR1/OXSR1) was 6%, the inhibition at 1 µM (PBK/TOPK) was 0% and the inhibition at 1 µM (PDK1/PDPK1) was 1%. It also gave an inhibition at 1 µM (PKA) of 6%, an inhibition at 1 µM (PKCb1) of 4% and an inhibition at 1 µM (PKG1a) of 0%. It also gave an inhibition at 1 µM (PKG2/PRKG2) of 11%, an inhibition at 1 µM (PLK3) of 3% and an inhibition at 1 µM (SGK2) of 0%. It also gave an inhibition at 1 µM (SYK) of 0%, an inhibition at 1 µM (TSSK2) of 0% and an inhibition at 1 µM (TTBK2) of 7%.
